Measurements from patent US9783527B2, “Indazole ureas and method of use” (AbbVie Inc., priority 2014, dated 2017).

Assays:
human Nav1.8 = human Nav1.8 (Homo sapiens (Human), UniProt Q9Y5Y9); assay: FRET-based membrane potential assay, recombinant human sodium channel Nav1.8; assay type: cell-based; conditions: HEK293 cells stably expressing recombinant human Nav1.8; depolarization with veratridine (EC80) + scorpion venom
Summary of the method: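 HEK293 cells stably expressing Nav1.8 were loaded with CC2-DMPE/DiSBAC2(3) FRET voltage dyes. Compounds were added 3 min before depolarization with EC80 veratridine plus scorpion venom. The F440-480/F565-625 ratio was read on FLIPR; IC50 came from four-parameter Hill fits.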

[1] = system: spinal nerve ligation-induced neuropathic pain in rats; assay: Rat spinal nerve ligation (SNL) model of neuropathic pain, von Frey paw withdrawal threshold; assay type: in vivo; conditions: SNL dose 100 mg/kg; male Sprague Dawley rats, mechanical sensitivity (von Frey)
Source text: Rat Spinal Nerve Ligation (SNL) Model of Neuropathic Pain.
A model of spinal nerve ligation-induced (SNL model) neuropathic pain as originally described by Kim and Chung (Kim, S. H. and J. M. Chung, 1992, Pain 50, 355) was used to test a compound of the present application. The male Sprague Dawley rats (Charles River Laboratories, Wilmington, Mass.), weighing 150-175 g at the time of surgery, were placed under isoflurane anesthesia and a 1.5 cm incision was made dorsal to the lumbosacral plexus. The paraspinal muscles (left side) were separated from the spinous processes, the left L5 and L6 spinal nerves isolated, and tightly ligated with 5-0 silk suture distal to the dorsal root ganglion. Care was taken to avoid ligating the L4 spinal nerve. Following spinal nerve ligation, a minimum of 7 days of recovery and no more than 3 weeks was allowed prior to the behavioral testing (mechanical sensitivity). Only rats with threshold scores ≦4.5 g were considered allodynic and utilized in pharmacological experiments.
Mechanical sensitivity was measured using calibrated von Frey filaments (Stoelting, Wood Dale, Ill.). Paw withdrawal threshold (PWT) was determined by using the Dixon's up-down method (Dixon, W. J., 1980, Ann. Rev. Pharmacol. Toxicol., 20, 441). Rats were placed into inverted individual plastic containers (20×12.5×20 cm) on top of a suspended wire mesh with a 1 cm^2 grid to provide access to the ventral side of the hind paws, and acclimated to the test chambers for 20 minutes. The von Frey filaments were presented perpendicularly to the plantar surface of the selected hind paw, and then held in this position for approximately 8 seconds with enough force to cause a slight bend in the filament. Positive responses included an abrupt withdrawal of the hind paw from the stimulus, or flinching behavior immediately following removal of the stimulus. A 50% withdrawal threshold was determined using an up-down procedure (Dixon, 1980). A percent maximal possible effect (% MPE) of testing compound was calculated according to the formula: (Log [compound-treated threshold]−Log [vehicle-treated threshold])/(Log [maximum threshold]−Log [vehicle-treated threshold])×100%, where the maximum threshold was equal to 15 g.
The animals were housed in Association for Assessment and Accreditation of Laboratory Animal Care (AAALAC) approved facilities at AbbVie Inc. in a temperature-regulated environment under a controlled 12-hour light-dark cycle, with lights on at 6:00 a.m. Food and water were available ad libitum at all times except during testing. All testing was done following procedures outlined in protocols approved by AbbVie Inc.s' Institutional Animal Care and Use Committee.

Sequence of human Nav1.8 (Q9Y5Y9 whole entry): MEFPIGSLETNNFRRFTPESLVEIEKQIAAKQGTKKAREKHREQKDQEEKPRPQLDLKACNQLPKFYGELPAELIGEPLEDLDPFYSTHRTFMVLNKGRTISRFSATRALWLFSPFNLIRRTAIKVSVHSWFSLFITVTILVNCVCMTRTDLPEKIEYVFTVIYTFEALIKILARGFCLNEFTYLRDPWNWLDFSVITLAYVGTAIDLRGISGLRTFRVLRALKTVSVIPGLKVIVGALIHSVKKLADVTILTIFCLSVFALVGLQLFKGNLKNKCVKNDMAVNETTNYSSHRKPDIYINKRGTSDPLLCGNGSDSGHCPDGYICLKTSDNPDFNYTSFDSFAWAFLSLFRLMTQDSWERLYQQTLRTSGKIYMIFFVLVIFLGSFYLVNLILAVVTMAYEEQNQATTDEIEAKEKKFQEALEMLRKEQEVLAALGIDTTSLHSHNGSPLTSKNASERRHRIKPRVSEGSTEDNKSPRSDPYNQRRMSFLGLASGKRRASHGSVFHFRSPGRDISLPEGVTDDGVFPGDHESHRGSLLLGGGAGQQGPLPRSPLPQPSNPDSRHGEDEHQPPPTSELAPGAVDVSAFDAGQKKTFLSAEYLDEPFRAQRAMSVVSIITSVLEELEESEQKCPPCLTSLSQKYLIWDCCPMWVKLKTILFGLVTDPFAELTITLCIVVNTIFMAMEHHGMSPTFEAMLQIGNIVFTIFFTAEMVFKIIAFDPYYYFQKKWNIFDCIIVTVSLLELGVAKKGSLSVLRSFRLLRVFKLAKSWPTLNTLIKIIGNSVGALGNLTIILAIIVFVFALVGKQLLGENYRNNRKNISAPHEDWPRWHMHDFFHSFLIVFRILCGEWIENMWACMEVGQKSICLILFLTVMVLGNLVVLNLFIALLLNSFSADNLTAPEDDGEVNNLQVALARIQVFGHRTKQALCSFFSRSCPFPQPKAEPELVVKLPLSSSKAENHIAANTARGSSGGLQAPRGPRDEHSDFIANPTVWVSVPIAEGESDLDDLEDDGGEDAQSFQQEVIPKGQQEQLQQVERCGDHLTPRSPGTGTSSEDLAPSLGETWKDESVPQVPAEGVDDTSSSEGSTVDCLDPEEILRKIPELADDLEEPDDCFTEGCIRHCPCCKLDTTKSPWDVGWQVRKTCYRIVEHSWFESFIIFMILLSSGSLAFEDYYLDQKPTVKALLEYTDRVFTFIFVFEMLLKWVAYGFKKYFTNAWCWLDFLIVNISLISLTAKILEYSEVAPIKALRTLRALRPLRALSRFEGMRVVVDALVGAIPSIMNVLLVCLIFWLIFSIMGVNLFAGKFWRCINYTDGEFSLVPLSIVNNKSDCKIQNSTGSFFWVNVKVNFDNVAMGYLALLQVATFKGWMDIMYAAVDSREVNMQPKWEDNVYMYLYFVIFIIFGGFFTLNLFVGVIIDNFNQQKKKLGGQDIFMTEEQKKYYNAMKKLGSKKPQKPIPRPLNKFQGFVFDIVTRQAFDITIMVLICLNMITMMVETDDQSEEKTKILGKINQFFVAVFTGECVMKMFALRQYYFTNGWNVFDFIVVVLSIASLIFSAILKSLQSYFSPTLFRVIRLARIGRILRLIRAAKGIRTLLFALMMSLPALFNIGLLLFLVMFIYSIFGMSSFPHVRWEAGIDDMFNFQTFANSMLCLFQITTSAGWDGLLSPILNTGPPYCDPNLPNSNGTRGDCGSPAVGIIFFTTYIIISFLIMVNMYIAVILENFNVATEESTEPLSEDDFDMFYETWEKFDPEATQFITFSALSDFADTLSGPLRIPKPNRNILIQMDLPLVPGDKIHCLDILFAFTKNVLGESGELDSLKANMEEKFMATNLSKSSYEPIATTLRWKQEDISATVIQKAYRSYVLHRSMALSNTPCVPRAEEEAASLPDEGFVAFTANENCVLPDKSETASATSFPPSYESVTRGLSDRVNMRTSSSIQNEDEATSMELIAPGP

Compound	IC50 (human Nav1.8)	SNL MPE (%) [1]
O=C(CN1CCN(c2cccc3c2cnn3-c2ccccc2F)C1=O)N[C@@H]1CCOC1 [Example 55, 2-{3-[1-(2-fluorophenyl)-1H-indazol-4-yl]-2-oxoimidazolidin-1-yl}-N-[(3R)-tetrahydrofuran-3-yl]acetamide]	5.28 µM	91%
C[C@H]1CCCN1C(=O)CN1CCN(c2cccc3c2cnn3-c2ccccc2F)C1=O [Example 15, 1-[1-(2-fluorophenyl)-1H-indazol-4-yl]-3-{2-[(2S)-2-methylpyrrolidin-1-yl]-2-oxoethyl}imidazolidin-2-one]	1.81 µM	74%
Cc1noc(C(C)N2CCN(c3cccc4c3cnn4-c3ccccc3F)C2=O)n1 (racemic) [Example 46, 1-[1-(2-fluorophenyl)-1H-indazol-4-yl]-3-[1-(3-methyl-1,2,4-oxadiazol-5-yl)ethyl]imidazolidin-2-one]	8.73 µM	59%
Cc1noc(C)c1CN1CCN(c2cccc3c2cnn3-c2ccccc2F)C1=O [Example 27, 1-[(3,5-dimethyl-1,2-oxazol-4-yl)methyl]-3-[1-(2-fluorophenyl)-1H-indazol-4-yl]imidazolidin-2-one]	1.04 µM	63%
